Marks after values point to notes of the source that are not given here.
System: C57B/6 male mice
Assay: Defensive burying (marble burying task)
Assay type: in vivo
Details: WT mice; 300 ug/kg IP 30 minutes prior to defensive burying testing; marbles buried more than 2/3 after 30 minutes; N = 6/group; vehicle 46.40%
Source text: The usefulness of alpha-2B receptor agonists in treating compulsive disorders are exemplified in a widely-used rodent model of compulsive behavior, the marble burying task. Absence of alpha2B receptor activity, either following treatment with an alpha2B receptor antagonist or in alpha2B receptor knockout mice, results in increased compulsive behavior in the marble burying task. […] Two alpha2B agonists used by the inventors, each belonging to a different compound class, are: Compound A, an imidazole thione, and Compound B, an imidazole amine.
Defensive burying: C57B/6 male mice (25-30 g) individually placed into plexiglass mouse cages filled with standard mouse bedding in their housing room. Each cage contained 7 small marbles (diameter 1 cm) and 7 larger marbles (diameter 1.5 cm). Mice remained in the cages for 30 minutes, after which time they were removed from their home cage and the number of marbles buried more than ⅔ was counted. Animals in treatment groups (Table 3) were administered compound IP (1 ml/kg) 30 min prior to testing.
For Table 2, data were evaluated by One-way ANOVA for overall effect of genotype [F(4,57)=4.155; P=0.0053]. Because the 2B WT is the only control for the 2B KO, an unpaired T-test was used to compare differences between 2B WT and 2B KO. For Table 3, data were evaluated by unpaired T-Test.

For `CN1CCc2c(C#N)c(N)n(C)c(=S)c2C1` [Compound C], the “% Buried” value was 61.90%**.
